Experimental data: US20230136600A1, “Method and device for screening antigen epitope polypeptide” (priority 2020, published 2023)

System: Balb/c mice
Assay: Polypeptide chip-based vaccine immunogenicity scoring system
Assay type: in vivo
Parameters: key to A2: whether the 95 percentile of the last sampling is increased compared with the end point: Y = rise; N = no rise
Settings: for Total single peptide: A*3 + B*2 + C*1; for A: 95 percentile grouping number score / B: Mouse performance score: total score = 5; for C1: #A timing-sequence response peptide fragment set / C2: #B vaccine specificity peptide fragment set / C3: Intersection of A and B / C4: Percentage of the intersection in set B / C: Timing-sequence response and specificity score: value of the whole mix
Experimental: Data distribution and characteristics thereof are analyzed based on a) and b), a polypeptide chip-based vaccine immunogenicity scoring system (referring to Table 7) is designed.
10 combinations are evaluated by the polypeptide chip-based vaccine immunogenicity scoring system. An evaluation method is consistent with that in Embodiment II. Evaluation results are show in the table below.
This embodiment is consistent with Embodiment II. Each combination is evaluated by the polypeptide chip-based vaccine immunogenicity scoring system. Evaluation results are show in the table below.

[1] = Embodiment III, polypeptide-KLH
[2] = Embodiment III, polypeptide-KLH, Mix1-10
[3] = Embodiment II, mice immunized with Combination 2

Row | Sequence | B1: D 0-D 14 95 percentile rise in the number of mice [1] | B2: D 0-D 21 95 percentile rise in the number of mice [1] | B3: D 14-D 21 95 percentile rise in the number of mice [1] | B4: D 21-D 28 95 percentile rise in the number of mice [1] | A1: difference between a highest median and a D 0 median (95 percentile) [2] | A2: whether the 95 percentile of the last sampling is increased compared with the end point [2] | Total single peptide [1] | A: 95 percentile grouping number score [1] | B: Mouse performance score [1] | C1: #A timing-sequence response peptide fragment set [1] | C2: #B vaccine specificity peptide fragment set [1] | C3: Intersection of A and B [1] | C4: Percentage of the intersection in set B [1] | C: Timing-sequence response and specificity score [1] | also measured
1 | KLDNYYKKDNSY (SARS-CoV-2) [SEQ ID NO:32] | 3 | 3 | 1 | 2 | 0.12 | Y | 20.2 | 5 | 2.1 | 1494 | 190 | 2 | 1.053 | 1 | 
2 | YTNDKACPL (SARS-CoV-2) [SEQ ID NO:1] | 2 | 2 | 1 | 1 | 0.11 | Y | 18.3 | 5 | 1.4 | 257 | 682 | 3 | 0.440 | 0.5 | 
3 | MADSNGTIT (SARS-CoV-2) [SEQ ID NO:16] | 3 | 3 | 1 | 2 | 0.08 | Y | 15.2 | 3.5 | 2.1 | 511 | 364 | 1 | 0.275 | 0.5 | A2: whether the 95 percentile of the last sampling is increased compared with the end point (Embodiment II, Combination 2): Y; B1: D 0-D 14 95 percentile rise in the number of mice (Embodiment II, Combination 2): 5; B2: D 0-D 21 95 percentile rise in the number of mice (Embodiment II, Combination 2): 1; B3: D 14-D 21 95 percentile rise in the number of mice (Embodiment II, Combination 2): 0; B4: D 21-D 28 95 percentile rise in the number of mice (Embodiment II, Combination 2): 2; Total single peptide (Embodiment II, Combination 2): 19.9; A: 95 percentile grouping number score (Embodiment II, Combination 2): 5; B: Mouse performance score (Embodiment II, Combination 2): 2.2; A1: difference between a highest median and a D 0 median (95 percentile) [3]: 0.2
4 | ALNTPKDH (SARS-CoV-2) [SEQ ID NO:19] | 3 | 3 | 0 | 1 | 0.12 | N | 17.9 | 4.5 | 1.7 | 288 | 268 | 4 | 1.493 | 1 | 
5 | VNKGEDIQLLKS [SEQ ID NO:27] | 3 | 3 | 1 | 0 | 0.14 | N | 17.4 | 4.5 | 1.7 | 133 | 431 | 1 | 0.232 | 0.5 | 
6 | DYNYKLPDD (SARS-CoV-2) [SEQ ID NO:11] | 3 | 3 | 1 | 2 | 0.12 | Y | 20.2 | 5 | 2.1 | 288 | 268 | 4 | 1.493 | 1 | 
7 | GVYYPDKVFR (SARS-CoV-2) [SEQ ID NO:7] | 3 | 3 | 0 | 0 | 0.09 | N | 14 | 3.5 | 1.5 | 145 | 529 | 1 | 0.189 | 0.5 | A2: whether the 95 percentile of the last sampling is increased compared with the end point (Embodiment II, Combination 2): N; B1: D 0-D 14 95 percentile rise in the number of mice (Embodiment II, Combination 2): 5; B2: D 0-D 21 95 percentile rise in the number of mice (Embodiment II, Combination 2): 0; B3: D 14-D 21 95 percentile rise in the number of mice (Embodiment II, Combination 2): 0; B4: D 21-D 28 95 percentile rise in the number of mice (Embodiment II, Combination 2): 1; Total single peptide (Embodiment II, Combination 2): 18.9; A: 95 percentile grouping number score (Embodiment II, Combination 2): 5; B: Mouse performance score (Embodiment II, Combination 2): 1.7; A1: difference between a highest median and a D 0 median (95 percentile) [3]: 0.4
8 | NVAKSEFDRDAA [SEQ ID NO:26] | 3 | 3 | 1 | 0 | 0.06 | N | 6.9 | 1 | 1.7 | 352 | 541 | 1 | 0.185 | 0.5 | 
9 | KVFRSSVLHSTQ [SEQ ID NO:6] | 3 | 3 | 0 | 2 | 0.09 | Y | 16.3 | 4 | 1.9 | 1212 | 389 | 1 | 0.257 | 0.5 | 
10 | LPFNDGVYF (SARS-CoV-2) [SEQ ID NO:14] | 3 | 2 | 2 | 3 | 0.09 | Y | 17.1 | 4 | 2.3 | 133 | 431 | 1 | 0.232 | 0.5 | 
11 | FHPLADNKF (SARS-CoV-2) [SEQ ID NO:17] | 3 | 2 | 0 | 2 | 0.10 | Y | 17.4 | 4.5 | 1.7 | 133 | 431 | 1 | 0.232 | 0.5 | 
12 | YEGNSPFH [SEQ ID NO:18] | 3 | 2 | 0 | 2 | 0.06 | Y | 9.9 | 2 | 1.7 | 1212 | 389 | 1 | 0.257 | 0.5 | 
13 | KRISNCVADY [SEQ ID NO:8] | 2 | 3 | 2 | 1 | 0.03 | N | 7.1 | 1 | 1.8 | 230 | 251 | 1 | 0.398 | 0.5 | 
